The text below walks through data of patent publication US12637432B2, “Inhibitors of ACK1/TNK2 tyrosine kinase” (H. LEE MOFFITT CANCER CENTER AND RESEARCH INSTITUTE, INC., priority 2020, dated 2026).

As usually defined, the IC50 is the concentration at which inhibition is half-maximal. The low end stands for greater potency, the high end for weaker potency.

The target in this assay is T1, ACK1 (Homo sapiens, UniProt Q07912).
T1 construct: purchased Reaction Biology
T1 sequence (Q07912 whole entry): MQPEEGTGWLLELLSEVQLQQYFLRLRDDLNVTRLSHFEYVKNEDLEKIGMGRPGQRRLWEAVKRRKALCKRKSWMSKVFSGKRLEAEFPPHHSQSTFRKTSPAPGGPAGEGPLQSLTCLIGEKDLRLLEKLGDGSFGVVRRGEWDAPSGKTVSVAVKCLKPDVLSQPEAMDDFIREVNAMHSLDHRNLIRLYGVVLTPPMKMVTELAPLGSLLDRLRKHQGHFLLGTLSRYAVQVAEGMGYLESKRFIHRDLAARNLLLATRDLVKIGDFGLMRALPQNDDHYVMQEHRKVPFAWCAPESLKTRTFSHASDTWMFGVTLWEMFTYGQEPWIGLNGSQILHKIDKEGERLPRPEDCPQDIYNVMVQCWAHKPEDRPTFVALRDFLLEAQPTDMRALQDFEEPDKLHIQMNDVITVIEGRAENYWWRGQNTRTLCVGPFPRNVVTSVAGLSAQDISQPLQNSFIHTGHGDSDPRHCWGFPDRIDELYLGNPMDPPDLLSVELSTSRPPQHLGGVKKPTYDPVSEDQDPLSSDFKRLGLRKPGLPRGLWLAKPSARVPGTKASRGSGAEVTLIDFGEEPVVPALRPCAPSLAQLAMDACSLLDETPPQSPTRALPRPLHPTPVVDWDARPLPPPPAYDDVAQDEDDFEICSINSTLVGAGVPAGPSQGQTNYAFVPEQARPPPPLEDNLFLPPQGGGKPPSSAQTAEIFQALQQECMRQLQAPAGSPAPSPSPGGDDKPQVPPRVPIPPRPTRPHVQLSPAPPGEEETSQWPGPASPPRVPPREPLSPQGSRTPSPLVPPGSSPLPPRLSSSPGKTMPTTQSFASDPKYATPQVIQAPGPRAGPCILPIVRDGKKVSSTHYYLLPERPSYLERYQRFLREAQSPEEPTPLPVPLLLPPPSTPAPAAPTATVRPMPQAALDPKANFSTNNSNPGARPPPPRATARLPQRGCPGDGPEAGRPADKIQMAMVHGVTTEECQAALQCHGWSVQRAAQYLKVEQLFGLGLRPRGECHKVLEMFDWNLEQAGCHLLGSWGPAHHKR
The assay can be described thus: Reaction Biology 33P Hotspot assay. The format is biochemical.
The compound `CN1CCN(c2ccc(Nc3ncc(Cl)c(NCC4CCOCC4)n3)c(O)c2)CC1` [2-((5-chloro-4-(((tetrahydro-2H-pyran-4-yl)methyl)amino)pyrimidin-2-yl)amino)-5-(4-methylpiperazin-1-yl)phenol] had an IC50 of 55.3 nM. In other words, the double-digit nanomolar range.
The same measure for `CN1CCC(n2cc(Nc3ncc(Cl)c(NCC4CCOCC4)n3)cn2)CC1` [5-chloro-N^2-(1-(1-methylpiperidin-4-yl)-1H-pyrazol-4-yl)-N^4-((tetrahydro-2H-pyran-4-yl)methyl)pyrimidine-2,4-diamine]: 138 nM; for `Clc1cnc(Nc2cnn(C3CCOCC3)c2)nc1NCC1CCOCC1` [5-chloro-N^2-(1-(tetrahydro-2H-pyran-4-yl)-1H-pyrazol-4-yl)-N^4-((tetrahydro-2H-pyran-4-yl)methyl)pyrimidine-2,4-diamine]: 90 nM; for `Cn1cc(Nc2ncc(Cl)c(NCC3CCOCC3)n2)cn1` [5-chloro-N^2-(1-methyl-1H-pyrazol-4-yl)-N^4-((tetrahydro-2H-pyran-4-yl)methyl)pyrimidine-2,4-diamine]: 84 nM.
`CC(C)Oc1cc(-c2cnn(C)c2)ccc1Nc1ncc(Cl)c(NCC2CCOCC2)n1` [5-chloro-N^2-(2-isopropoxy-4-(1-methyl-1H-pyrazol-4-yl)phenyl)-N^4-((tetrahydro-2H-pyran-4-yl)methyl)pyrimidine-2,4-diamine]: inhibition was half-maximal at 232 nM (IC50). This IC50 lies about 2.8-fold higher than the previous one.
`COc1cc(-c2cnn(C)c2)ccc1Nc1ncc(Cl)c(NCC2CCOCC2)n1` [5-chloro-N^2-(2-methoxy-4-(1-methyl-1H-pyrazol-4-yl)phenyl)-N^4-((tetrahydro-2H-pyran-4-yl)methyl)pyrimidine-2,4-diamine] returned an IC50 of 38.1 nM. Against the preceding compound, the IC50 is about 6.1-fold lower.
For `COc1cc(-n2cccn2)ccc1Nc1ncc(Cl)c(NCC2CCOCC2)n1` [5-chloro-N^2-(2-methoxy-4-(1H-pyrazol-1-yl)phenyl)-N^4-((tetrahydro-2H-pyran-4-yl)methyl)pyrimidine-2,4-diamine] the value was 34.9 nM; for `Cn1cc(-c2ccc(Nc3ncc(Cl)c(NCC4CCOCC4)n3)cc2F)cn1` [5-chloro-N^2-(3-fluoro-4-(1-methyl-1H-pyrazol-4-yl)phenyl)-N^4-((tetrahydro-2H-pyran-4-yl)methyl)pyrimidine-2,4-diamine], 31 nM.
The same measure for `CC(C)Oc1cc(Nc2ncc(Cl)c(NCC3CCOCC3)n2)ccc1-c1cnn(C)c1` [5-chloro-N^2-(3-isopropoxy-4-(1-methyl-1H-pyrazol-4-yl)phenyl)-N^4-((tetrahydro-2H-pyran-4-yl)methyl)pyrimidine-2,4-diamine]: 23.6 nM; for `COc1cc(Nc2ncc(Cl)c(NCC3CCOCC3)n2)ccc1-c1cnn(C)c1` [5-chloro-N^2-(3-methoxy-4-(1-methyl-1H-pyrazol-4-yl)phenyl)-N^4-((tetrahydro-2H-pyran-4-yl)methyl)pyrimidine-2,4-diamine]: 27.6 nM.
`CN1CCN(Cc2ccc(Nc3ncc(Cl)c(NCC4CCOCC4)n3)cc2)CC1` [5-chloro-N^2-(4-((4-methylpiperazin-1-yl)methyl)phenyl)-N^4-((tetrahydro-2H-pyran-4-yl)methyl)pyrimidine-2,4-diamine] displayed an IC50 of 69.1 nM.
For `Clc1cnc(Nc2ccc(OCC3CCOCC3)cc2)nc1NCC1CCOCC1` [5-chloro-N^2-(4-((tetrahydro-2H-pyran-4-yl)methoxy)phenyl)-N^4-((tetrahydro-2H-pyran-4-yl)methyl)pyrimidine-2,4-diamine] the value was 46 nM; for `COc1cc(-n2cccn2)ccc1Nc1ncc(Cl)c(NC[C@H]2CCCO2)n1` [(R)-5-chloro-N^2-(2-methoxy-4-(1H-pyrazol-1-yl)phenyl)-N^4-((tetrahydrofuran-2-yl)methyl)pyrimidine-2,4-diamine], 64.6 nM; for `CC(C)Oc1cc(Nc2ncc(Cl)c(N[C@H](C)C3CCOCC3)n2)ccc1C1CCN(C)CC1` [(R)-5-chloro-N^2-(3-isopropoxy-4-(1-methylpiperidin-4-yl)phenyl)-N^4-(1-(tetrahydro-2H-pyran-4-yl)ethyl)pyrimidine-2,4-diamine], 40.8 nM.
